Measurements published in ChEMBL document CHEMBL1201862, “PubChem BioAssay data set” (2004).
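48-hour exposure; five concentrations; linearly interpolated endpoints. At the GI50, growth is halved.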 Active and inactive are the calls of the source. No stated cut-off is given here; in the data, active = GI50 up to about 1.1 µM and inactive = higher.

How the values were obtained:
Assay in all cases: DTP human tumour cell line panel, 48 h
[1] = system: SN12C
[2] = system: T47D
[3] = system: OVCAR-8
[4] = system: MCF7
[5] = system: BT-549
[6] = system: TK-10
[7] = system: SK-MEL-2
[8] = system: NCI-H460
[9] = system: Malme-3M
[10] = system: NCI/ADR-RES
[11] = system: NCI-H522
[12] = system: K562
[13] = system: HCT-15
[14] = system: MDA-N
[15] = system: SK-OV-3
[16] = system: A549
[17] = system: CCRF-CEM
[18] = system: MOLT-4
[19] = system: A498

| Compound | GI50 [1] | GI50 [2] | GI50 [3] | GI50 [4] | GI50 [5] | GI50 [6] | GI50 [7] | GI50 [8] | GI50 [9] | GI50 [10] | GI50 [11] | GI50 [12] | GI50 [13] [µM] | GI50 [14] | GI50 [15] | GI50 [16] | GI50 [17] | GI50 [18] | GI50 [19] |
| --- | --- | --- | --- | --- | --- | --- | --- | --- | --- | --- | --- | --- | --- | --- | --- | --- | --- | --- | --- |
| Oc1ccccc1-n1nc2ccc3nonc3c2n1 | > 100 µM (inactive) | > 100 µM (inactive) | > 100 µM (inactive) | > 100 µM (inactive) | > 100 µM (inactive) | > 100 µM (inactive) | > 100 µM (inactive) | > 100 µM (inactive) | > 100 µM (inactive) | > 100 µM (inactive) | > 100 µM (inactive) | > 100 µM (inactive) | 51.3 | > 100 µM (inactive) | > 100 µM (inactive) | > 100 µM (inactive) | > 100 µM (inactive) | > 100 µM (inactive) | – |
| N#CC(C#N)/N=C/c1ccncc1 | > 100 µM (inactive) | > 100 µM (inactive) | > 100 µM (inactive) | > 100 µM (inactive) | > 100 µM (inactive) | > 100 µM (inactive) | > 100 µM (inactive) | – | > 100 µM (inactive) | > 100 µM (inactive) | – | > 100 µM (inactive) | > 100 | > 100 µM (inactive) | > 100 µM (inactive) | > 100 µM (inactive) | 28.7 µM (inactive) | > 100 µM (inactive) | 95.9 µM (inactive) |
| Nc1nc(Cl)c(N)c(NCC2(CO)CC(Cc3ccccc3)C2)n1 (stereo not drawn) | > 100 µM (inactive) | 0.923 µM (active) | 56.9 µM (inactive) | 7.87 µM (inactive) | 42.5 µM (inactive) | > 100 µM (inactive) | 52.6 µM (inactive) | > 55.5 µM (inactive) | – | 15.1 µM (inactive) | 28.5 µM (inactive) | 0.218 µM (active) | > 79.3 | 33.3 µM (inactive) | > 100 µM (inactive) | > 75 µM (inactive) | 23.1 µM (inactive) | 16.3 µM (inactive) | – |
| C/C(=N\Nc1nc2ccccc2s1)c1cnccn1 | 1.08 µM (active) | 0.769 µM (active) | 1.7 µM (inactive) | 1.52 µM (inactive) | 11.1 µM (inactive) | – | 7.5 µM (inactive) | 1.77 µM (inactive) | 0.505 µM (active) | 1.74 µM (inactive) | 0.265 µM (active) | 1.67 µM (inactive) | 0.625 | 11.4 µM (inactive) | 2.08 µM (inactive) | 3.3 µM (inactive) | 0.318 µM (active) | 0.461 µM (active) | – |
| Cc1ccc(-n2cc(-c3ccc(Cl)cc3)c(C#N)c2N)cc1 | 14.8 µM (inactive) | – | 15.9 µM (inactive) | 14.6 µM (inactive) | 18.2 µM (inactive) | 14.7 µM (inactive) | 15.2 µM (inactive) | 15.1 µM (inactive) | 18 µM (inactive) | 17.3 µM (inactive) | 12.1 µM (inactive) | 16.6 µM (inactive) | 12.1 | 18.5 µM (inactive) | 20.7 µM (inactive) | 17.4 µM (inactive) | 15.5 µM (inactive) | – | 18.4 µM (inactive) |
| CCOC(=O)c1c(SCCO)n(-c2ccccc2)c(=S)n(-c2ccccc2)c1=O | > 100 µM (inactive) | > 100 µM (inactive) | > 100 µM (inactive) | > 100 µM (inactive) | > 100 µM (inactive) | > 100 µM (inactive) | > 100 µM (inactive) | > 100 µM (inactive) | > 100 µM (inactive) | > 100 µM (inactive) | > 100 µM (inactive) | > 100 µM (inactive) | > 100 | > 100 µM (inactive) | > 100 µM (inactive) | > 100 µM (inactive) | > 100 µM (inactive) | > 100 µM (inactive) | – |
| COc1cnc2cc(C(=O)O)c3c([N+](=O)[O-])cccc3c2c1 | > 100 µM (inactive) | > 100 µM (inactive) | > 100 µM (inactive) | > 100 µM (inactive) | > 100 µM (inactive) | > 100 µM (inactive) | > 100 µM (inactive) | > 100 µM (inactive) | > 100 µM (inactive) | > 100 µM (inactive) | > 100 µM (inactive) | > 100 µM (inactive) | > 100 | > 100 µM (inactive) | > 100 µM (inactive) | > 100 µM (inactive) | > 100 µM (inactive) | > 100 µM (inactive) | – |
| CC1=NC(=Cc2ccc(O)cc2)C(=O)N1n1c(-c2ccccc2)nc2ccccc2c1=O | > 100 µM (inactive) | > 100 µM (inactive) | > 100 µM (inactive) | > 100 µM (inactive) | > 100 µM (inactive) | > 100 µM (inactive) | – | > 100 µM (inactive) | > 100 µM (inactive) | – | > 100 µM (inactive) | > 100 µM (inactive) | > 100 | > 100 µM (inactive) | > 100 µM (inactive) | > 100 µM (inactive) | > 100 µM (inactive) | > 100 µM (inactive) | > 100 µM (inactive) |
| CC(=O)O[C@H]1[C@@H](N2CCCCC2)C[C@H]2[C@@H]3CC=C4C[C@@H](N5CCCC5)CC[C@]4(C)[C@H]3CC[C@@]21C | > 100 µM (inactive) | > 100 µM (inactive) | > 100 µM (inactive) | > 100 µM (inactive) | > 100 µM (inactive) | > 100 µM (inactive) | > 100 µM (inactive) | 91.6 µM (inactive) | 22.8 µM (inactive) | > 100 µM (inactive) | > 100 µM (inactive) | 4.07 µM (inactive) | 19.4 | – | > 100 µM (inactive) | > 100 µM (inactive) | 31.9 µM (inactive) | 44.5 µM (inactive) | > 100 µM (inactive) |
| CC(C)[Si](OC1=CCC[C@H]2NC(=O)[C@@H](Cc3ccc([N+](=O)[O-])cc3)[C@@]12C)(C(C)C)C(C)C | 2.02 µM (inactive) | 4.73 µM (inactive) | 11.6 µM (inactive) | 3.73 µM (inactive) | 3.76 µM (inactive) | 11 µM (inactive) | 12.8 µM (inactive) | 3.35 µM (inactive) | 16.6 µM (inactive) | 11.7 µM (inactive) | 4.95 µM (inactive) | 3.06 µM (inactive) | 4.25 | 4.98 µM (inactive) | 10.1 µM (inactive) | 1.85 µM (inactive) | 2.86 µM (inactive) | 3.72 µM (inactive) | – |
| C1CSC[C@H]2COC[C@@H](CSCCS1)S2 | > 100 µM (inactive) | > 100 µM (inactive) | > 100 µM (inactive) | > 100 µM (inactive) | > 100 µM (inactive) | 50.4 µM (inactive) | – | > 100 µM (inactive) | – | > 100 µM (inactive) | > 100 µM (inactive) | > 100 µM (inactive) | > 100 | > 100 µM (inactive) | – | > 100 µM (inactive) | > 100 µM (inactive) | > 100 µM (inactive) | – |
| CC(C)CCC[C@@H](C)C1CCC2[C@@H]3CCC4C[C@@H](NS(C)(=O)=O)CC[C@]4(C)C3CC[C@@]21C (stereo partly drawn) | > 100 µM (inactive) | > 100 µM (inactive) | > 100 µM (inactive) | > 100 µM (inactive) | > 100 µM (inactive) | > 100 µM (inactive) | > 100 µM (inactive) | > 100 µM (inactive) | > 100 µM (inactive) | > 100 µM (inactive) | > 100 µM (inactive) | > 100 µM (inactive) | > 100 | > 100 µM (inactive) | > 100 µM (inactive) | > 100 µM (inactive) | > 100 µM (inactive) | > 100 µM (inactive) | – |
